The subject of test [1] is organotypic hippocampal slice cultures, hippocampal CA1 region. Nature of the test: Oxygen/glucose deprivation of hippocampal organotypic slice cultures (PI staining). The test is classed as cell-based, Lister Hooded rat.
The test system of test [2] is primary hippocampal neurons. The test can be described thus: Excitotoxicity in dispersed primary hippocampal cultures (MTT cell survival). The test is classed as cell-based, Sprague Dawley rat.
Test [3] deals with voltage-gated Na+ and K+ channels. Nature of the test: Selectivity: action potential firing. Format: cell-based. As to conditions: 100 μM.
For another test, the system named is HCN channels. The following applies: non use-dependent; cited from earlier work.
The next test concerns hippocampal slices. Nature of the test: Epileptiform bursting activity in hippocampal slices (field recordings, area CA3). Format: cell-based, rat. As to conditions: irrespective of model: bicuculline, Mg2+-free, 4-AP, Ca2+-free/elevated K+. As to the method: Hippocampal slices were prepared from 4-6 week old rats that had been sacrificed by cervical dislocation and subsequent decapitation in accordance with UK Home Office guidelines. The brain was removed rapidly and hippocampal slices prepared by cutting 400 μm thick horizontal sections through the whole brain minus the cerebellum using a vibroslicer (Campden Instruments, Loughborough, UK). The hippocampus from these sections was dissected free from the surrounding brain regions and the resultant hippocampal slices placed on a nylon mesh at the interface of a warmed (32-34° C.), perfusing (1-2 ml.min^−1) artificial cerebrospinal fluid (aCSF) and an oxygen-enriched (95% O2, 5% CO2), humidified atmosphere. The standard perfusion medium comprised (mM): NaCl, 124; KCl, 3; NaHCO3, 26; NaH2PO4, 1.25; CaCl2, 2; MgSO4, 1; D-glucose, 10; and was bubbled with 95% O2, 5% CO2. Extracellular field potential recordings were made using glass microelectrodes (24 MΩ) filled with aCSF placed in stratum pyramidale in area CA3. […] Non synaptic field bursting activity (that is relevant to both epilepsy and migraine) was induced by removal of extracellular Ca^2+ and elevation of extracellular K^+ from 3 mM to 6-8 mM (FIG. 12).

The subject of test [4] is metabotropic glutamate receptor. Nature of the test: Selectivity: metabotropic glutamate receptor activation. Format: cell-based. The following applies: 100 μM.
In another test the test system is Ih. Nature of the test: Whole-cell patch-clamp detection of Ih in neurones from both culture models. Format: cell-based, rat.
A further test has as its system NMDA receptor. Format: cell-based.
In test [5] the test system is voltage-gated Ca2+ channel. Nature of the test: Selectivity: voltage-gated Ca2+ channel activation. The test is classed as cell-based. The following applies: 100 μM.
For the next test, the system named is hippocampal cultures. Nature of the test: Spontaneous synaptic activity and membrane potential in hippocampal cultures, Mg2+-free insult. The test is classed as cell-based, rat. The following applies: 100 μM; applied before, during or after the Mg2+-free insult. As to the method:
When Mg^2+ containing medium was reinstated 15 mins later there was a sustained increase in spontaneous activity above that recorded prior to the Mg^2+ free challenge. No change in the magnitude of the Ih current was recorded during or after the Mg^2+ free challenge. […] This reduction in activity differed from that induced by the NMDA receptor antagonist AP5 in that the frequency of activity in the presence of ZD7288 was much lower, yet individual events were much larger, than that observed in AP5.

The next test concerns SCN neurones. Nature of the test: Suprachiasmatic nucleus slices, extracellular single unit recordings. The test is classed as cell-based, rat. The following applies: 10-100 μM; all neurones tested. As to the method:
Supraachiasmatic nucleus slices were prepared from 4-6 week old rats that had been sacrificed by cervical dislocation and subsequent decapitation in accordance with UK Home Office guidelines. The brain was removed rapidly and SCN slices prepared by cutting 400 μm thick coronal sections through the whole brain minus the cerebellum using a vibroslicer (Campden Instruments, Loughborough, UK). The resultant SCN slices were placed in a warmed (32-34° C.) submersion recording chamber perfused at 1-2 ml.min^−1 with an oxygen-enriched (95% O2, 5% CO2) artificial cerebrospinal fluid (aCSF) comprised of (mM): NaCl, 124; KCl, 3; NaHCO3, 26; NaH2PO4, 1.25; CaCl2, 2; MgSO4, 1; D-glucose, 10. Extracellular single unit recordings were made using glass microelectrodes (24 MΩ) filled with aCSF placed in the SCN.

Like-named read-outs stand apart in the source and are kept apart here.

Consider `C[C@]12N[C@H](Cc3ccccc31)c1ccccc12` [MK-801], for which the “DAMAGE (% Cell Loss)” value in test [1] is recorded as 34.90 ± 15.99%. Further, the “NEURONAL SURVIVAL (%)” value in [2] was 101 ± 1.2%.
With `CCN(c1ccccc1)c1cc(=NC)n(C)c(C)n1.Cl` [ZD7288, N-ethyl-1,6-dihydro-1,2-dimethyl-6-(methylimino)-N-phenyl-4-pyrimidinamine hydrochloride], the “direct effects on action potential firing (activation of voltage-gated Na+ and K+ channels)” value in [3] is “no direct effects”. In addition, the “concentration range inhibiting HCN channels” value in the test with HCN channels was 1 to 300 µM. Further, the “DAMAGE (% Cell Loss)” value is recorded as 64.01 ± 4.66% in test [1] (100 nM, added 60 minutes before, during, and for 24 h after the insult); 15.12 ± 9.54% in test [1] (300 nM, added 60 minutes before, during, and for 24 h after the insult); 0.72 ± 0.44% in test [1] (1 μM, added 60 minutes before, during, and for 24 h after the insult); 4.58 ± 3.09% in test [1] (10 μM, added 60 minutes before, during, and for 24 h after the insult); 12.50 ± 8.24% in [1] (100 μM, added immediately after the insult and for the 24 h recovery period only). Also, the neuroprotection result in test [1] (applied immediately after oxygen glucose deprivation, FIG. 3) is “neuroprotection was still observed”. Also, in [1] (treated slices subjected to OGD, single-shock electrical stimulation in stratum radiatum, FIG. 3), the “electrophysiological responses in stratum pyramidale and stratum radiatum of area CA1” value is reported as “possible to evoke normal electrophysiological responses”. The “effect on epileptiform bursting activity” value in the test on hippocampal slices is given as “concentration dependent inhibition”. Moreover, the “direct effects on metabotropic glutamate receptor activation” value in test [4] was “no direct effects”. For the same compound, in the test on Ih (100 μM), the “block of Ih” value was “almost completely blocked”. Further, in the test with Ih (0.1-100 μM), the “inhibition of hyperpolarization-activated current (Ih)” value is “inhibited”. For the same compound, in the test on NMDA receptor, the “direct effects on NMDA receptor activation” value is listed as “no direct effects”. Also, in [5], the “direct effects on voltage-gated Ca2+ channel activation” value is “no direct effects”. Besides, the “NEURONAL SURVIVAL (%)” value in test [2] (1 μM, added 30 minutes before, during, and for 24 h after the insult) amounted to 40.6 ± 4.9%; in test [2] (3 μM, added 30 minutes before, during, and for 24 h after the insult), 40.1 ± 8.1%; in test [2] (10 μM, added 30 minutes before, during, and for 24 h after the insult) it was 48.4 ± 5.5%; in test [2] (30 μM, added 30 minutes before, during, and for 24 h after the insult) it was 56.7 ± 2.0%; in [2] (100 μM, added 30 minutes before, during, and for 24 h after the insult), 65.9 ± 3.7%; in [2] (100 μM, added during the 24 h recovery period only) it was 78.0 ± 5.5%. The “NEURONAL SURVIVAL (%)” value is recorded as 79.5 ± 2.1% in test [2] (100 μM, added during the insult only); 88.5 ± 2.7% in [2] (300 μM, added 30 minutes before, during, and for 24 h after the insult); 101.0 ± 1.2% in test [2] (300 μM, added during the 24 h recovery period only); 97.9 ± 9.6% in test [2] (300 μM, added during the insult only). Besides, in test [2] (FIG. 4), the “delay of application after the insult without loss of neuroprotective efficacy” value was “up to 60 minutes”. In addition, the IC50 in test [2] (Rattus norvegicus, Hippocampal neuron, hippocampal neurones, read-out: IC50 for inhibition of damage) is ~120 µM. The “effect on membrane potential / current” value in the test on hippocampal cultures is reported as “induced a membrane potential hyperpolarization/outward current”. Moreover, the “effect on spontaneous activity” value in the test with hippocampal cultures was “reduced spontaneous activity”. Further, the “effect on frequency of single unit firing” value in the test with SCN neurones is “concentration dependent reduction”.

One may read the IC50 as the concentration that inhibits the measured activity by half.

The values above are taken from patent publication US20040033943A1, “Hcn polypeptides and polynucleotides and their use in therapy” (priority 2000, published 2004).
